This note sets out measurements from ChEMBL document CHEMBL1125088, “Stereospecific synthesis, assignment of absolute configuration, and biological activity of the enantiomers of 3-[[[3-[2-(7-chloroquinolin-2-yl)-(E)-ethenyl]phenyl] [[3-(dimethylamino)-3-oxopropyl]thio]methyl]thio]propionic acid, a potent and specific leukotriene D4 receptor antagonist” (J Med Chem, 1990).

Experiment [1] concerns the target T1, Cysteinyl leukotriene receptor 1 (Homo sapiens, UniProt Q9Y271).
T1 sequence (Q9Y271 whole entry): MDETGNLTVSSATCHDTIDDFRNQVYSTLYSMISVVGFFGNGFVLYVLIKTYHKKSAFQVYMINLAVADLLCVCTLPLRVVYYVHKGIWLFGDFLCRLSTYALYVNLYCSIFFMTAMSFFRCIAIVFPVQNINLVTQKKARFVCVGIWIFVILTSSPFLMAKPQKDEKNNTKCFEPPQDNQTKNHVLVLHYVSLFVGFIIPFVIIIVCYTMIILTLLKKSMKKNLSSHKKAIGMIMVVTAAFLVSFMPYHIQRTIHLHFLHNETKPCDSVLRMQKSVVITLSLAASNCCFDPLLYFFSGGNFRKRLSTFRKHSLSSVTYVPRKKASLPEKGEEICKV
Put plainly: In vitro inhibitory activity against Cysteinyl leukotriene D4 receptor from human lung membrane. It is filed as tissue-based.

Experiment [2] concerns the target T2, Cysteinyl leukotriene receptor 1 (Cavia porcellus, UniProt Q2NNR5).
T2 sequence (Q2NNR5 whole entry): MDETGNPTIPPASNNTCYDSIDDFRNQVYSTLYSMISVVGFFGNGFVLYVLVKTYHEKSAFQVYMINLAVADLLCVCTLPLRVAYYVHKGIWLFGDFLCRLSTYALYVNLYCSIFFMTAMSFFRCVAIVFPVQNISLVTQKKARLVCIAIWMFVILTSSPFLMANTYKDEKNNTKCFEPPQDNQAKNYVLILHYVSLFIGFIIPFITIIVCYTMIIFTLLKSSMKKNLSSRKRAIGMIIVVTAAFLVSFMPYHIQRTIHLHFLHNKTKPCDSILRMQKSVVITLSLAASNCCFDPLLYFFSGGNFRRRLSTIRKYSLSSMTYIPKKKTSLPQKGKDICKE
The experiment in a line: Binding affinity against Cysteinyl leukotriene D4 receptor from guinea pig lung membrane. Type of experiment: tissue-based.

The species named for the next experiment is Cavia porcellus. Put plainly: Antagonist activity of LTD4-induced contractions of isolated guinea pig trachea. It is filed as functional.
The species named for the next experiment is Rattus norvegicus. Put plainly: Tested for antigen-induced dyspnea in hyperactive rats. Type of experiment: functional.

As for `CN(C)C(=O)CCS[C@H](SCCC(=O)O)c1cccc(/C=C/c2ccc3ccc(Cl)cc3n2)c1` [VERLUKAST], the 50% inhibitory concentration (IC50) in experiment [1] stood at 8 nM; in experiment [2], 3.2 nM. Moreover, the “-Log KB” value in the experiment listed under Cavia porcellus came out at 8.7. For the same compound, the ED50 in the experiment listed under Rattus norvegicus came out at 0.028 mg/kg.
The corresponding values for `CN(C)C(=O)CCSC(SCCC(=O)[O-])c1cccc(/C=C/c2ccc3ccc(Cl)cc3n2)c1.[Na+]` (stereo not drawn) are 3.1 nM, 0.77 nM, 9 and 0.097 mg/kg.
